Columns and labels:
[1] = system: chromatin-assembled p21 promoter; experiment: In vitro transcription of the chromatin-assembled p21-LUC template with HeLa cell nuclear extract; format: biochemical, human
Description: The p21-LUC chromatin template was subjected to in vitro transcription reactions using HeLa cell nuclear extracts as a source of basal initiation components in the presence or absence of p53 and/or p300, as described in the protocol depicted in FIG. 1B. Both factors were added after chromatin assembly was complete (“post assembly”) and incubated with the template prior to in vitro transcription. Addition of p53 alone produced very modest transcriptional activation. […] Neither p53 nor p300 appreciably influenced transcription of naked DNA templates. Identical results were obtained using extracts from another cell line, erythroid K562. Thus, transcriptional activation from the chromatin-assembled p21 promoter in vitro requires p53, acting at a distance of at least 1.38 kb, in combination with a histone acetyl transferase cofactor, p300.
Chromatin was reconstituted using Drosophila embryonic extracts as described (Bulger, M. and Kadonaga, J. 1994 Methods Mol Genet 5:242-262). After assembly, the chromatin template (500 ng of DNA in 50 μl) was incubated with p53 and/or p300 (typically between 0.2-10 pmol of p53 and 0.2-0.5 pmol of p300), for 30 min at 27° C. For transcription, 20 μl of HeLa cell nuclear extract (typically 8 mg/ml) was added and incubated on ice for 10 min, then reactions proceeded as described (Kadam, S. et al. 2000 Genes & Dev 14:2441-2451). The purified RNA was analyzed by primer extension analysis with primers specific to luciferase and -globin gene (used as an internal control) sequences.

p21 promoter 5′ site = experiment: Electrophoretic Mobility Shift Assay (EMSA) of p53 binding to DNA containing the 5′ site of the p21 promoter; set-up: species or system human; details: compared with the acetylated form of wild-type p53
From the text: Both probes were ^32P end-labeled using T4 polynucleotide kinase and further purified by 12%-15% polyacrylamide native gels.

p21 promoter [2] = experiment: DNase I footprinting of chromatin and DNA (p21-LUC plasmid); format: binding, human; details: DNase I footprinting on p21 promoter DNA or chromatin
Description: To analyze the mechanism by which p300 mediates p53-dependent activation, DNase I chromatin footprinting assays were performed to examine the occupancy of the 5′ and 3′ sites of the p21 promoter under conditions of transcriptional coactivation. Chromatin assembly and factor incubation steps were performed as described above, but the samples were split into three aliquots just before the in vitro transcription reaction. One aliquot was subjected to DNase I digestion, the second was transcribed, and the third was analyzed by Western blot to determine the acetylation status of p53.
DNA footprinting experiments were performed with chromatin-assembled p21 promoters after ATP depletion and purification by gel filtration using nonsaturating amounts of p53.
DNase I footprinting was done using three different templates: crude chromatin-assembled mixtures, CL4B-purified chromatin, and naked DNA. […] After incubation of the different templates with the proteins, samples were digested with 33 U/ml (crude chromatin), 1.5 U/ml (purified chromatin) or 0.1 U/ml (naked DNA) DNase I (Boehringer Mannheim) for 75 s at 25° C. Purified DNA fragments were analyzed by primer extension.

[3] = system: chromatin-assembled p21 promoter; experiment: In vitro chromatin immunoprecipitation with anti-acetyl-H4 antibodies; format: biochemical, human; details: p53 and p300
Description: To determine whether p53 influenced the localization of nucleosome acetylation on the p21 promoter by direct recruitment of p300, in vitro chromatin immunoprecipitation assays were performed. p21 promoters were assembled into chromatin using purified components and incubated with p53 and/or p300. Chromatin was digested with micrococcal nuclease and acetylated oligonucleosomes were immunoprecipitated using anti-acetyl-H4 antibodies. Specific p21 plasmid sequences in the immunoprecipitates were detected by PCR amplification or Southern blot. Identical results were obtained from both assays. […] The extent of increased acetylation in different regions of the p21-LUC plasmid varied from 3.4-fold near the 3′ p53 binding site to 1.4-fold in a distal region located 2 kb downstream of the proximal promoter. […] The following decreasing levels of acetylation were found: 3′ site>TATA box=5′ site>>+2 kb.
Chromatin immunoprecipitation analysis was performed using the anti-acetylated histone H4 antibody (Upstate Biotechnology) according to the manufacturer's recommendations and as previously described (Kundu, T. K. et al. 2000 Mol Cell 6:551-561) with some minor modifications, and as described in Example 2 (see below).

[4] = system: nucleosomal histones of the chromatin-assembled p21 promoter; experiment: Chromatin HAT assay (3H-acetyl CoA incorporation); format: biochemical
Description: The quality of p21 promoter chromatin assembled in this purified system was determined by micrococcal nuclease digestion, as for embryo extracts, with similar results. The templates were then incubated with p53 and/or p300 in the presence of ^3H-acetyl CoA and the extent of acetylation monitored by incorporation of radioactivity when analyzed by SDS-PAGE and fluorography. […] A control reaction with equivalent amounts of free histones and p300 was included. Acetylation of p53 and autoacetylation of p300 was also detected.
Chromatin assembly was performed with recombinant dACF complex and NAP-1 histone chaperone as described (Ito, T. et al. 1999 Genes & Dev 13:1529-1539 and references therein). Chromatin assembly was assessed by micrococcal nuclease digestion and transcriptional repression. After assembly, proteins were added to the chromatin mixtures in the presence of 5 μM ^3H-acetyl CoA (ICN). After incubation for 1 hr at 30° C. with p53 and/or p300, reactions were stopped by boiling in SDS-PAGE loading buffer and analyzed on a 15% SDS-PAGE gel. The gel was fixed and treated with fluorography enhancing solutions (NEN Life Science). The gel was then dried and exposed to autoradiography.

p21 promoter [5] = experiment: Chromatin immunoprecipitation (ChIP) in U2OS cells after DNA damage, p21 promoter; format: cell-based, human
From the text: To address this issue, a chromatin immunoprecipitation (ChIPs) technique was used to examine the temporal order of interaction of a variety of transcription proteins to individual p53-responsive promoters that control cell cycle arrest and apoptosis before and after DNA damage by two different damaging agents. […] For example, before damage the p21 promoter is already poised for transcription by containing bound RNA polymerase II, TATA binding protein (TBP), TFIIB, and TFIIH.
U2OS cells were grown to 50-60% confluency and treated either with UV-C or doxorubicin, (constant presence in media) for various times before crosslinking. After aspirating the media and washing with phosphate-buffered saline (PBS), cells were crosslinked with a 1% formaldehyde solution in 1×PBS for 15 min at room temperature. Crosslinking was stopped by addition of glycine to 125 mM final concentration. Monolayers were washed twice with cold PBS and harvested in radioimmunoprecipitation assay (RIPA) buffer [150 mM NaCl, 1% v/v Nonidet P-40, 0.5% w/v deoxycholate, 0.1% w/v SDS, 50 mM Tris pH 8, 5 mM EDTA, protease inhibitor cocktail, phosphatase inhibitors (20 mM NaF/0.2 mM sodium orthovanadate), deacetylase inhibitors (5 μM trichostatin A/5 mM sodium butyrate) and 0.5 mM PMSF] to generate a suspension of 10 million cells/ml. Suspensions were sonicated to generate DNA fragments below 500 bp and clarified by centrifugation for 10 min at 12000 g. Protein solutions were quantified for protein and DNA content and adjusted to 1 mg/ml of protein.
For immunoprecipitation, 1 mg of protein extract was pre-cleared for 2 hrs with 40 μl of a 50% slurry of 50:50 proteinA:proteinG sepharose before addition of indicated antibodies. Antibody (Ab) sources: DO1 (anti-total p53, Oncogene), S15P (anti-Serine 15-phospho-p53, Cell Signaling), AcH4 (Upstate), anti-TAF250 (R. Tjian), anti-TFIIB, -TBP, -RNApol II, -TFIIH (Santa Cruz), anti-serine 2-phospho-RNApol II and anti-serine 5-phospho-RNApol II (Covance). […]
DNA was precipitated and used as template in semi-quantitative PCR reactions. […]

In the case of “p53KR: mutant p53 in which lysines 370, 372, 373, 381, and 382 within the C-terminal domain were replaced by arginine”, the “ability to activate transcription compared with wild-type p53” value ([1]; with p300) is reported as “coactivated by p300 to a similar extent as wild-type p53”.
With “p53ΔC30: C-terminal deleted form of p53, lacking the last 30 amino acid residues” the “binding activity in EMSA” value (p21 promoter 5′ site) was “strongly active”, the “binding to the 3′ site” value (p21 promoter [2]) was “no binding” and the “binding to the 5′ site” value (p21 promoter [2]) was “weaker binding”.
For “p300: full-length human histidine-tagged p300, histone acetyl transferase cofactor, expressed in Sf9 cells”, the “transcriptional activation of the chromatin template” value ([1]; coincubation with p53) was “strong synergistic de-repression”, the “transcriptional activation of the chromatin template” value ([1]; p300 alone) was “unable to achieve such activation” and the “extent of increased acetylation” value ([3]; distal region 2 kb downstream of the proximal promoter) was 1.4 fold. For the same compound, the “extent of increased acetylation” value ([3]; near the 3′ p53 binding site) was 3.4 fold, the “acetylation of nucleosomal histones” value ([4]; both p53 and p300 present) was “strong acetylation” and the “acetylation of nucleosomal histones” value ([4]; p300 alone) was “very weak acetylation”.
For `COc1cccc2c1C(=O)c1c(O)c3c(c(O)c1C2=O)C[C@@](O)(C(=O)CO)C[C@@H]3O[C@H]1C[C@H](N)[C@H](O)[C@H](C)O1` [doxorubicin], the “binding of phosphorylated p53 to the p21 promoter” value (p21 promoter [5]) was “significantly increased”, the “recruitment of TAFII250 to the p21 promoter” value (p21 promoter [5]) was “no recruitment” and the “recruitment of TFIIB to the p21 promoter” value (p21 promoter [5]) was “active recruitment”.

From patent US20030228627A1, “Assay for p53 function in cells” (priority 2002, published 2003)
